Test results from the supplement of paper PMC10331698.
± gives the standard deviation of the averaged measurements.

Experiments:
Assay in all cases: level (log10 ratio to DMSO vehicle control); higher = higher biomarker level / cell amount than vehicle control
[1] = compound: FC(F)(F)C(F)(F)CNCC(F)(F)C(F)(F)F [Bis(1H,1H-perfluoropropyl)amine]; settings: in DMSO
Method: (§1)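 BioMAP Diversity Plus panel of 12 human primary cell co-culture systems (3C, 4H, LPS, SAg, BT, BF4T, BE3C, CASM3C, HDF3CGF, KF3CT, MyoF, Mphg). Compounds were added 1 h before stimulation and left for 24 h (MyoF 48 h; BT 72 h for soluble read-outs or 6 d for IgG). Biomarkers were read by ELISA, cytotoxicity by SRB, PBMC viability and proliferation by Alamar Blue. Each well value was divided by the mean of 8 DMSO control wells on the same plate and log10 transformed; duplicate blinded samples were tested at 4 concentrations.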

[2] = compound: O=S(=O)(O)C(F)(F)C(F)(F)C(F)(F)C(F)(F)C(F)(F)C(F)(F)C(F)(F)C(F)(F)C(F)(F)C(F)(F)F [Sodium perfluorodecanesulfonate]; settings: in DMSO
Method: as §1

[3] = compound: NC(=O)C(F)(F)C(F)(F)C(F)(F)C(F)F; settings: in DMSO
Method: as §1

[4] = compound: O=S(=O)(F)C(F)(F)C(F)(F)C(F)(F)C(F)(F)C(F)(F)C(F)(F)C(F)(F)C(F)(F)F [Perfluorooctanesulfonyl fluoride]; settings: in DMSO
Method: as §1

[5] = compound: FC(F)(F)C(F)(F)C(F)(F)C(F)(F)C(F)(F)C(F)(F)CC1CO1 [3-(Perfluorohexyl)-1,2-epoxypropane]; settings: in DMSO
Method: as §1

[6] = compound: FC(F)(F)C(F)(F)C(F)(F)CI [Heptafluorobutyl iodide]; settings: in DMSO
Method: as §1

[7] = compound: COC(=O)C(F)(F)C(F)(F)OC(F)(C(F)(F)F)C(F)(F)OC(F)=C(F)F [Methyl perfluoro(3-(1-ethenyloxypropan-2-yloxy)propanoate)]; settings: in DMSO
Method: as §1

[8] = compound: C=C(C)C(=O)OCCC(F)(F)C(F)(F)C(F)(F)C(F)(F)C(F)(F)C(F)(F)F [6:2 Fluorotelomer methacrylate]; settings: in DMSO
Method: as §1

[9] = compound: O=C(O)C=CC(F)(C(F)(F)F)C(F)(F)F [3-(Perfluoroisopropyl)-2-propenoic acid]; settings: in DMSO
Method: as §1

[10] = compound: NC(=O)C(F)(F)C(F)(F)C(F)(F)C(F)(F)F [Nonafluoropentanamide]; settings: in DMSO
Method: as §1

[11] = compound: O=C(O)C(F)(F)C(F)(F)C(F)(F)C(F)(F)C(F)(F)C(F)(F)C(F)(F)C(F)(F)C(F)(F)C(F)F [11-H-Perfluoroundecanoic acid]; settings: in DMSO
Method: as §1

[12] = compound: NS(=O)(=O)C(F)(F)C(F)(F)C(F)(F)C(F)(F)C(F)(F)C(F)(F)F [Perfluorohexanesulfonamide]; settings: in DMSO
Method: as §1

[13] = compound: C=CC(=O)OCC(F)(F)C(F)(F)C(F)(F)COC(=O)C=C [1H,1H,5H,5H-Perfluoro-1,5-pentanediol diacrylate]; settings: 6700 nM; in DMSO
Method: as §1

[14] = compound: FC(F)(F)C(F)(F)C(F)(F)C(F)(F)C(F)(F)C(F)(F)C(F)(F)I [1-Iodopentadecafluoroheptane]; settings: in DMSO
Method: as §1

[15] = compound: FC(F)(F)C(F)(F)C(F)(F)CC1CO1 [1H,1H-Heptafluorobutyl epoxide]; settings: in DMSO
Method: as §1

[16] = compound: O=S(=O)(Cl)C(F)(F)C(F)(F)C(F)(F)C(F)(F)C(F)(F)C(F)(F)C(F)(F)C(F)(F)F [Perfluoro-1-octanesulfonyl chloride]; settings: in DMSO
Method: as §1

[17] = compound: OCC(F)(F)C(F)(F)C(F)(F)CO [Hexafluoroamylene glycol]; settings: in DMSO
Method: as §1

[18] = compound: NC(=O)C(F)(F)C(F)(F)C(F)(F)C(F)(F)C(N)=O [Octafluoroadipamide]; settings: in DMSO
Method: as §1

[19] = compound: O=S(=O)(O)CCC(F)(F)C(F)(F)C(F)(F)C(F)(F)C(F)(F)C(F)(F)F [6:2 Fluorotelomer sulfonic acid]; settings: in DMSO
Method: as §1

Test System: BE3C:tPA
- level (log10) ([1]; 6700 nM): -0.0285 ± 0.0021
- level (log10) ([1]; 20000 nM): -0.0685 ± 0.011
- level (log10) ([1]; 60000 nM): -0.0225 ± 0.036
- level (log10) ([2]; 1500 nM): 0.12 ± 0.017
- level (log10) ([2]; 4400 nM): 0.186 ± 0.0028
- level (log10) ([2]; 13000 nM): 0.191 ± 0.013
- level (log10) ([2]; 40000 nM): -0.103 ± 0.0057
- level (log10) ([3]; 6700 nM): -0.008 ± 0.0028
- level (log10) ([3]; 20000 nM): -0.0275 ± 0.016
- level (log10) ([3]; 60000 nM): -0.0235 ± 0.0021
- level (log10) ([4]; 6700 nM): -0.045 ± 0.075
- level (log10) ([4]; 20000 nM): -0.027 ± 0.034
- level (log10) ([4]; 60000 nM): -0.027 ± 0.027
- level (log10) ([5]; 6700 nM): 0.0085 ± 0.019
- level (log10) ([5]; 20000 nM): -0.014 ± 0.014
- level (log10) ([5]; 60000 nM): 0.0325 ± 0.018
- level (log10) ([6]; 6700 nM): -0.0095 ± 0.029
- level (log10) ([6]; 20000 nM): -0.024 ± 0.011
- level (log10) ([6]; 60000 nM): 0.015 ± 0.044
- level (log10) ([7]; 6700 nM): -0.114 ± 0.033
- level (log10) ([7]; 20000 nM): -0.142 ± 0.018
- level (log10) ([8]; 6700 nM): -0.0525 ± 0.036
- level (log10) ([8]; 20000 nM): -0.053 ± 0.018
- level (log10) ([8]; 60000 nM): -0.056 ± 0.013
- level (log10) ([9]; 6700 nM): -0.004 ± 0.045
- level (log10) ([9]; 20000 nM): -0.0215 ± 0.042
- level (log10) ([9]; 60000 nM): 0.022 ± 0.0071
- level (log10) ([10]; 6700 nM): 0.003 ± 0.0085
- level (log10) ([10]; 20000 nM): 0.008 ± 0.017
- level (log10) ([10]; 60000 nM): 0.0095 ± 0.012
- level (log10) ([11]; 6700 nM): 0.036 ± 0.058
- level (log10) ([11]; 20000 nM): -0.338 ± 0.018
- level (log10) ([12]; 6700 nM): -0.0075 ± 0.035
- level (log10) ([12]; 20000 nM): 0.0005 ± 0.016
- level (log10) ([12]; 60000 nM): -0.245 ± 0.059
- level (log10) [13]: -0.0565 ± 0.033
- level (log10) ([14]; 6700 nM): -0.006 ± 0.0042
- level (log10) ([14]; 20000 nM): 0.0075 ± 0.022
- level (log10) ([15]; 6700 nM): -0.0115 ± 0.06
- level (log10) ([15]; 20000 nM): -0.0245 ± 0.03
- level (log10) ([15]; 60000 nM): -0.0375 ± 0.026
- level (log10) ([16]; 6700 nM): 0.01 ± 0.047
- level (log10) ([16]; 20000 nM): 0 ± 0.04
- level (log10) ([16]; 60000 nM): -0.359 ± 0.11
- level (log10) ([17]; 6700 nM): -0.0205 ± 0.00071
- level (log10) ([17]; 20000 nM): -0.02 ± 0.0057
- level (log10) ([17]; 60000 nM): 0.011 ± 0.031
- level (log10) ([18]; 6700 nM): -0.0485 ± 0.00071
- level (log10) ([18]; 20000 nM): -0.0395 ± 0.037
- level (log10) ([18]; 60000 nM): -0.011 ± 0.052
- level (log10) ([19]; 6700 nM): -0.0025 ± 0.016
- level (log10) ([19]; 20000 nM): 0.029 ± 0.02
- level (log10) ([19]; 60000 nM): 0.05 ± 0.025

Test System: BT:sIL-17A
- level (log10) ([1]; 6700 nM): -0.0465 ± 0.067
- level (log10) ([1]; 20000 nM): -0.075 ± 0.13
- level (log10) ([1]; 60000 nM): -0.069 ± 0.25
- level (log10) ([2]; 1500 nM): 0.0435 ± 0.16
- level (log10) ([2]; 4400 nM): 0.057 ± 0.17
- level (log10) ([2]; 13000 nM): 0.052 ± 0.3
- level (log10) ([2]; 40000 nM): -0.0495 ± 0.11
- level (log10) ([3]; 6700 nM): 0.059 ± 0.033
- level (log10) ([3]; 20000 nM): 0.025 ± 0.19
- level (log10) ([3]; 60000 nM): -0.0885 ± 0.32
- level (log10) ([4]; 6700 nM): -0.047 ± 0.098
- level (log10) ([4]; 20000 nM): -0.176 ± 0.021
- level (log10) ([4]; 60000 nM): -0.112 ± 0.021
- level (log10) ([5]; 6700 nM): -0.0215 ± 0.057
- level (log10) ([5]; 20000 nM): -0.0315 ± 0.12
- level (log10) ([5]; 60000 nM): -0.041 ± 0.11
- level (log10) ([6]; 6700 nM): 0.009 ± 0.02
- level (log10) ([6]; 20000 nM): 0.009 ± 0.045
- level (log10) ([6]; 60000 nM): -0.176 ± 0.11
- level (log10) ([7]; 6700 nM): 0.033 ± 0.018
- level (log10) ([7]; 20000 nM): 0.061 ± 0.17
- level (log10) ([8]; 6700 nM): -0.058 ± 0.16
- level (log10) ([8]; 20000 nM): 0.028 ± 0.099
- level (log10) ([8]; 60000 nM): -0.078 ± 0.04
- level (log10) ([9]; 6700 nM): -0.01 ± 0.047
- level (log10) ([9]; 20000 nM): 0.024 ± 0.14
- level (log10) ([9]; 60000 nM): -0.124 ± 0.13
- level (log10) ([10]; 6700 nM): -0.145 ± 0.18
- level (log10) ([10]; 20000 nM): 0.05 ± 0.064
- level (log10) ([10]; 60000 nM): -0.213 ± 0.17
- level (log10) ([11]; 6700 nM): 0.003 ± 0.0057
- level (log10) ([11]; 20000 nM): -0.0485 ± 0.061
- level (log10) ([12]; 6700 nM): -0.155 ± 0.069
- level (log10) ([12]; 20000 nM): -0.072 ± 0.069
- level (log10) ([12]; 60000 nM): -0.026 ± 0.051
- level (log10) [13]: -1.14 ± 0.22
- level (log10) ([14]; 6700 nM): -0.213 ± 0.3
- level (log10) ([14]; 20000 nM): -0.112 ± 0.31
- level (log10) ([15]; 6700 nM): -0.0185 ± 0.022
- level (log10) ([15]; 20000 nM): 0.0025 ± 0.033
- level (log10) ([15]; 60000 nM): -0.033 ± 0.067
- level (log10) ([16]; 6700 nM): -0.0095 ± 0.08
- level (log10) ([16]; 20000 nM): 0.0335 ± 0.071
- level (log10) ([16]; 60000 nM): -0.084 ± 0.15
- level (log10) ([17]; 6700 nM): -0.089 ± 0.0014
- level (log10) ([17]; 20000 nM): -0.0745 ± 0.0064
- level (log10) ([17]; 60000 nM): 0.0015 ± 0.05
- level (log10) ([18]; 6700 nM): -0.107 ± 0.018
- level (log10) ([18]; 20000 nM): -0.0535 ± 0.098
- level (log10) ([18]; 60000 nM): 0.0055 ± 0.025
- level (log10) ([19]; 6700 nM): -0.135 ± 0.05
- level (log10) ([19]; 20000 nM): -0.005 ± 0.081
- level (log10) ([19]; 60000 nM): -0.126 ± 0.21
